Patent US12017974B2, “Adamantanecarboxylic acid benzyl amide derivative compound and skin whitening composition comprising same” (AMOREPACIFIC CORPORATION, priority 2019, dated 2024)

Tested on: B16F10 (malignant melanoma cells)
Test: Effect of inhibiting melanin formation in melanocytes (Dooley method)
Assay type: cell-based
Conditions: Mus musculus, B16-F10, 72 h; mice-derived B16F10 cells; treated continuously for 3 days; melanin dissolved in 1 N NaOH, absorbance at 405 nm; read-out: Inhibition of melanin formation IC50
Description: Each of the amide derivative compounds according to Examples was determined in terms of the effect of inhibiting melanin formation in melanocytes by using the Dooley method. As a cell line, a mice-derived B16F10 (malignant melanoma cells) available from Korean Cell Line Bank was used. In addition, DMEM (Cat No. 11195), FBS (Cat No. 16000-044) and antibiotic-antifungal agent (Cat No. 15240-062) required for culturing cells were purchased from Invitrogen (GIBCO). The cell line was cultured at 37° C. under 5% CO2. The cultured B16F10 cells were stripped off with 0.05% trypsin-EDTA, the same number of cells (1×10^4 cells/well) was inoculated into a 48-well plate, and then the medium was exchanged with a medium containing 10 ppm of each Example continuously for 3 days from the next day. As a positive control, kojic acid and 5-adamantan-1-yl-N-(2,4-dihydroxybenzyl)-2,4-dimethoxybenzamide were used. After the fifth day, the cells were treated with 1 N NaOH to carry out reaction at 60° C. for 2 hours so that melanin contained in the cells might be dissolved, and then the amount of melanin was measured by determining the absorbance at 405 nm. Then, the concentration (IC50) of each Example required for reducing melanin formation by half in melanocytes was calculated.

IC50 [nM]	SMILES
1100	COc1cc(OC)c(C23CC4CC(CC(C4)C2)C3)cc1C(=O)NCc1ccc(O)cc1O [5-adamantan-1-yl-N-(2,4-dihydroxybenzyl)-2,4-dimethoxybenzamide, reference compound]
15000	O=C(NCc1ccc(O)cc1O)C12CC3CC(CC(C3)C1)C2 [Example 1, Adamantane-1-Carboxylic Acid 2,4-Dihydroxybenzylamide]
20	O=C(NCc1ccc(O)c(O)c1)C12CC3CC(CC(C3)C1)C2 [Example 2, Adamantane-1-Carboxylic Acid 3,4-Dihydroxybenzylamide]
20600	O=C(NCc1cc(O)cc(O)c1)C12CC3CC(CC(C3)C1)C2 [Example 3, Adamantane-1-Carboxylic Acid 3,5-Dihydroxybenzylamide]
1430	O=C(NCc1cc(O)ccc1O)C12CC3CC(CC(C3)C1)C2 [Example 4, Adamantane-1-Carboxylic Acid 2,5-Dihydroxybenzylamide]
11100	O=C(NCc1ccc(O)cc1)C12CC3CC(CC(C3)C1)C2 [Example 5, Adamantane-1-Carboxylic Acid 4-Hydroxybenzylamide]
480	O=C(NCc1cccc(O)c1)C12CC3CC(CC(C3)C1)C2 [Example 6, Adamantane-1-Carboxylic Acid 3-Hydroxybenzylamide]
2360	O=C(NCc1ccccc1O)C12CC3CC(CC(C3)C1)C2 [Example 7, Adamantane-1-Carboxylic Acid 2-Hydroxybenzylamide]
500000	O=c1cc(CO)occ1O [Kojic acid, reference compound]
